Laboratory results from patent publication US20260294949A1, “SUBSTITUTED BICYCLIC HETEROCYCLE COMPOUNDS, COMPOSITIONS, AND USES THEREOF” (Lakewood Amedex, Inc., priority 2023, published 2026).

Tests used:
Assay type in all cases: cell-based
[1] = test system: Staphylococcus aureus (43330); assay: MIC, broth microdilution (CLSI), Staphylococcus aureus (43330); conditions: pH 3, 18 to 24 hours
Description: (§1) MIC testing is conducted using the broth (Mueller Hinton Broth) microdilution procedures relevant to each organism group as established by the Clinical and Laboratory Standards Institute (CLSI; 3-7). MIC plates are prepared in accordance with CLSI (3-7). To prepare the test plates, automated liquid handlers are used to conduct serial dilutions and liquid transfers. Automated liquid handlers utilized in this study include the Multidrop 384 (Labsystems, Helsinki, Finland) and the Biomek 2000 (Beckman Coulter, Fullerton CA). The solution is diluted to desired pH using 1 M Citric Acid or 1 M NaOH buffer. A standardized inoculum of each test organism is prepared per CLSI methods (3, 5-7) to equal a 0.5 McFarland standard in the appropriate media followed by an additional 1:20 dilution (1:10 for anaerobes).
(§2) The plates are then inoculated with 10 μL of the diluted 0.5 McFarland suspension using the Biomek 2000 from low to high drug concentration, resulting in a final concentration of approximately 5×10^5 CFU/mL per well. An un-inoculated plate is incubated for the purpose of assessing solubility of the drug in the test media. The plates are stacked 3 to 4 high, covered with a sterile lid on the top plate, and incubated for 18 to 24 hours according to CLSI. The MIC is recorded as the lowest concentration of respective compound that inhibited visible growth of the organism.

Escherichia coli (25922) = assay: MIC, broth microdilution (CLSI), Escherichia coli (25922); conditions: pH 3, 18 to 24 hours
Description: as §1, §2

[2] = test system: Pseudomonas aeruginosa (27853); assay: MIC, broth microdilution (CLSI), Pseudomonas aeruginosa (27853); conditions: pH 3, 18 to 24 hours
Description: as §1, §2

Candida albicans (22972) = assay: MIC, broth microdilution (CLSI), Candida albicans (22972); conditions: pH 3, 18 to 24 hours
Description: as §1, §2

Escherichia coli (0102) = assay: MIC, broth microdilution (CLSI), Escherichia coli (0102); conditions: pH 4-5, 18 to 24 hours
Description: as §1, §2

Escherichia coli (6260) = assay: MIC, broth microdilution (CLSI), Escherichia coli (6260); conditions: pH 4-5, 18 to 24 hours
Description: as §1, §2

Escherichia coli (6098) = assay: MIC, broth microdilution (CLSI), Escherichia coli (6098); conditions: pH 4-5, 18 to 24 hours
Description: as §1, §2

Escherichia coli (6258) = assay: MIC, broth microdilution (CLSI), Escherichia coli (6258); conditions: pH 4-5, 18 to 24 hours
Description: as §1, §2

Escherichia coli (6259) = assay: MIC, broth microdilution (CLSI), Escherichia coli (6259); conditions: pH 4-5, 18 to 24 hours
Description: as §1, §2

[3] = test system: Pseudomonas aeruginosa (0103); assay: MIC, broth microdilution (CLSI), Pseudomonas aeruginosa (0103); conditions: pH 4-5, 18 to 24 hours
Description: as §1, §2

[4] = test system: Pseudomonas aeruginosa (6160); assay: MIC, broth microdilution (CLSI), Pseudomonas aeruginosa (6160); conditions: pH 4-5, 18 to 24 hours
Description: as §1, §2

[5] = test system: Pseudomonas aeruginosa (6234); assay: MIC, broth microdilution (CLSI), Pseudomonas aeruginosa (6234); conditions: pH 4-5, 18 to 24 hours
Description: as §1, §2

[6] = test system: Pseudomonas aeruginosa (6326); assay: MIC, broth microdilution (CLSI), Pseudomonas aeruginosa (6326); conditions: pH 4-5, 18 to 24 hours
Description: as §1, §2

[7] = test system: Pseudomonas aeruginosa (6328); assay: MIC, broth microdilution (CLSI), Pseudomonas aeruginosa (6328); conditions: pH 4-5, 18 to 24 hours
Description: as §1, §2

Structure (SMILES) | MIC [1] [mg/mL] | MIC (Escherichia coli (25922)) [mg/mL] | MIC [2] [mg/mL] | MIC (Candida albicans (22972)) [mg/mL] | MIC (Escherichia coli (0102)) [mg/mL] | MIC (Escherichia coli (6260)) [mg/mL] | MIC (Escherichia coli (6098)) [mg/mL] | MIC (Escherichia coli (6258)) [mg/mL] | MIC (Escherichia coli (6259)) [mg/mL] | MIC [3] [mg/mL] | MIC [4] [mg/mL] | MIC [5] [mg/mL] | MIC [6] [mg/mL] | MIC [7] [mg/mL]
CCCCOP(=O)(O)OC[C@H]1O[C@@H](n2cnc3c(N)ncnc32)C[C@@H]1O [LAI-017, ((2R,3S,5R)-5-(6-amino-9H-purin-9-yl)-3-hydroxytetrahydrofuran-2-yl)methyl butyl hydrogen phosphate] | 25 | 25 | 5 | 5 |  |  |  |  |  |  |  |  |  | 
CCCCOP(=O)(O)OC[C@H]1O[C@@H](n2cnc3c(=O)[nH]c(N)nc32)[C@H](OC)[C@@H]1O [R-8, ((2R,3R,4R,5R)-5-(2-amino-1,9-dihydro-6H-purin-6-one-9-yl)-4-methoxy-3-hydroxytetrahydrofuran-2-yl)-methyl butyl hydrogen phosphate] |  |  |  |  | 100 | 100 | 100 | 100 | 100 | 100 | 100 | 50 | 100 | 100
CCCCOP(=O)(O)OC[C@H]1O[C@@H](n2cnc3cnc(N)nc32)C[C@@H]1O [LAI-020, ((2R,3S,5R)-5-(2-amino-9H-purin-9-yl)-3-hydroxytetrahydrofuran-2-yl)-methyl butyl hydrogen phosphate] | 25 | 25 | 5 | 25 |  |  |  |  |  |  |  |  |  | 
CCCCOP(=O)(O)OC[C@H]1O[C@@H](n2cnc3c(=O)[nH]c(N)nc32)C[C@@H]1O [R-4, ((2R,3S,5R)-5-(2-amino-1,9-dihydro-6H-purin-6-one-9-yl)-3-hydroxytetrahydrofuran-2-yl)-methyl butyl hydrogen phosphate] |  |  |  |  | 50 | 100 |  |  |  | 25 | 50 | 25 |  | 
CCCCOP(=O)(O)OC[C@H]1O[C@@H](n2ncc3c(N)ncnc32)C[C@@H]1O [LAI-018, ((2R, 3S, 5R)-5-(4-amino-1H-pyrazolo [3,4-d]pyrimidine-1-yl)-3-hydroxytetra hydrofuran-2-yl)methyl butyl hydrogen phosphate] | 25 | 25 | 25 | 5 |  |  |  |  |  |  |  |  |  | 
